The conditions of data set [1]: versus phenylbutazone; Alpermann 1970, 1972; cited from earlier work.
Data set [2] deals with carrageenin edema of the hind paw of rats. Kind of data set: Acute antiphlogistic action: carrageenin edema of the hind paw of rats after single oral administration. The following applies: for ED50: Rattus norvegicus, po, read-out: ED50 (dose which causes a maximum edema inhibition of 50%); for Therapeutic quotient LD50/ED50: carrageenin edema, LD50 7 days oral; for Therapeutic quotient LD50/ED50 / Maximum inhibition of carrageenin edema within 7 hours after oral administration: rats. Here is the method:
(§1) Biol. Med., 111 (1962) 544]}, on chronic inflammatory processes {Cotton pellet test on rats [Winter et al.: J. Pharmacol. exp. Therap., 141 (1963) 369]} and on adjuvant arthritis [based on the method of Perrine et al., Brit. J. Pharmacol., 21 (1963) 127] is determined.
The influence of the compounds to be tested on carrageenin edema of the hind paw of rats was determined as follows:
The rats are kept at 24° C.
The paw volume of each rat is determined (2 to 3 individual measurements in each case) before edema provocation and at hourly intervals for 7 hours after edema provacation. The average percentage paw swelling of each treated group determined at the specified times after the carrageenin injection is related to that of the untreated control group (=100%).
The maximum percentage edema inhibition serves as a measure of the antiphlogistic action.
The paw volume is determined plethysmometrically. Measuring principle: the volume of liquid displaced through the paw of the rat is recorded digitally via an electromechanical pressure transducer (Statham P 23 V, 0-200 mm Hg).
The doses indicated for the compounds tested were administered in a volume of liquid of 20 ml/kg.
Background: In the carrageenan paw model, swelling and tenderness develop within hours.

Data set [3] deals with adjuvant arthritis in rats. The data set can be described thus: Antiarthritic action: adjuvant arthritis in rats (Mycobacterium butyricum). Here is the method: as §1
The influence of the compounds to be tested on polyarthritis in rats caused by Mycobacterium butyricum (so-called "adjuvant arthritis") was determined using the experimental arrangement hereafter described: based on the method described by NEWBOULD and PERRINE et al. [NEWBOULD, B. B.; Brit. J. Pharmacol. 21, 127 (1963); and PERRINE, J. W. and TAKESUE, E. I.; Arch. int. Pharmacodyn., 174, 192 to 198 (1968)], so-called adjuvant arthritis, which manifests itself chiefly in a severe swelling of the tail (primary lesion) and of the paws (secondary lesion), is caused in rats by intradermal injection of a Mycobact. butyricum suspension in liquid paraffin into the base of the tail. Antiphlogistic agents inhibit this swelling reaction.

The test system of data set [4] is pain reaction provoked in rats by bending an inflamed ankle (AgNO3 arthritis). Kind of data set: animal or person. Type of data set: in vivo. Here is the method:
Based on the method of HOFFMEISTER et al. [Arzneim. Forsch., 24, (1974) 600], 0.2 ml of a 1% strength silver nitrate solution is injected into the ankle joint (inside) of the right hind paw of female Sprague-Dawley rats (each animal weighing about 160 to 180 g) under ether anaesthesia. The animals are kept at 24° C. and are fed Altromin®R and water ad libitum. After the AgNO3 injection, almost all the animals (90 to 95%) can be made to cry out by moderate bending of the ankle joint. All the animals reacting positively are collected into groups of 10 animals. The compounds to be tested are administered orally in a volume of liquid of 10 ml/kg immediately after administration of the AgNO3; the untreated control animals receive the corresponding amount of tapwater.
Over a period of 4 hours after administration of the substance, the number of animals reacting is determined at half hourly intervals.
The maximum percentage of the protected animals over a period of 4 hours after administration of the substance [relative to the number of animals in the control group reacting (=100%)] serves as a measure of the analgesic action.

The subject of data set [5] is yeast-induced fever in rats. Kind of data set: Antipyretic action: yeast-induced fever in rats. Type of data set: in vivo, rats (female Sprague-Dawley). Particulars: for ED (1.5 degC): Rattus norvegicus, po, read-out: ED1.5 (dose which causes a maximum reduction in yeast-induced fever of 1.5° C.); for Therapeutic quotient LD50/ED2.5: yeast-induced fever, LD50 7 days. Here is the method: The antipyretic action is determined by the influence of the compounds to be tested on yeast-induced fever in rats.
Hyperthermia is produced in female Sprague-Dawley rats (in groups of 5 animals; weight of each animal: 160 to 180 g) by subcutaneous injection (neck) of 10 ml/kg of a 20 percent strength aqueous brewer's yeast suspension (brewer's yeast "Heliosan"/Hefereformwerk Radolfzell). 24 hours after the yeast injection, the compounds to be tested are administered orally to the animals in a volume of liquid of 5 ml/kg, and a control group receives the corresponding amount of tapwater. The feed (Altromin®R, water ad libitum) was withdrawn from the rats 18 hours beforehand. The rats are kept at about 23° C.
The body temperature is recorded 1 hour before administration of the substance and at hourly intervals after administration of the substance.
[…] The body temperature is measured with a temperature probe (Tastomed H, Braun electronic).

The next data set is described as follows: in vivo. The following applies: rat, po.
The test system of another data set is rats. Particulars: 7 days (Table 6).
The subject of data set [6] is formation of granulation tissue after subcutaneous implantation of cotton. Kind of data set: Chronic antiphlogistic action: cotton pellet test (formation of granulation tissue) in rats. Particulars: rats; for Therapeutic quotient LD50/ED20: cotton pellet test, LD50 7 days oral; for Inhibition of the formation of granulation tissue after treatment for 7 days: sodium salt. Here is the method: as §1
Experimental procedure for investigating the influence of the compounds to be tested on the formation of granulation tissue after implantation of cotton in rats (so-called cotton pellet method):
1 cotton pellet (manufacturer: Messrs. Hartmann/Heidenheim; cotton pellets size 2, No. 4865/2) which weighs 13.0±0.5 mg and has been impregnated beforehand with 0.1 ml of a solution of 0.5 mg of penicillin G and 0.8 mg of streptomycin sulfate/1 ml of distilled water is in each case implanted subcutaneously into the shoulder-blade region, on both sides, of male Sprague-Dawley rats (groups of 8 animals each; weight of each animal: 150 to 170 g) under diethyl ether anaesthesia and under sterile conditions. The cut skin is closed by means of clamps.
The compounds to be tested (in the form of the sodium salt in aqueous solution) or the corresponding amount (5 ml/kg/day) of tapwater (=control group) are administered orally each day on seven successive days. On the eighth day, the animals are killed and the cotton granules are exposed carefully, that is to say preserving the fibrous tissue capsule, dried (15 hours at 120°) and weighed. By substracting the weight of the cotton pellets, the amount of newly formed granulation tissue is obtained.
The percentage reduction in the average granuloma dry weight of a treated group compared with the control group (=100%) serves as a measure of the antiproliferative action of a compound.

Setting [7] is: AgNO3 arthritis pain, LD50 7 days oral, rats.
[8] abbreviates: rats, single oral dose 0.3 mg/kg.

Where two headings read alike, the source gives them in different places.

Turning to `Cc1cccc(Nc2cscc2C(=O)O)c1Cl` [2-chloro-3-methylphenyl derivative], the actions result in data set [1] was “superior to those of phenylbutazone”.
As to `Cc1c(Cl)cccc1Nc1cscc1C(=O)O` [2-methyl-3-chlorophenyl derivative], in data set [1], the actions entry was “superior to those of phenylbutazone”.
A word on the ED50: it is the dose at which the effect has come halfway, by size or by number of responders. A word on the LD50: it is the dose expected to kill half of the subjects tested. With `O=C(O)c1cscc1Nc1c(Cl)cccc1Cl` [Compound 1, 3-(2,6-dichloroanilino)thiophen-4-carboxylic acid], the ED50 in data set [2] came to 56 mg/kg; in data set [4] (Rattus norvegicus, po, rats, perorally, at the time of maximum action, read-out: ED50 (dose which completely suppresses the pain reaction in 50% of the animals)), 140 mg/kg. Also, the “Therapeutic quotient LD50/ED50” value in data set [2] was determined as 2.1; in data set [4] (setting [7]) it was 0.86. Also, the figures for the “Maximum inhibition of carrageenin edema within 7 hours after oral administration” value (“Maximum inhibition” for short) in data set [2] (single oral dose 10.0 mg/kg) and in data set [2] (single oral dose 100.0 mg/kg) were 31% and 57%, respectively. The ED25 in data set [3] (Rattus norvegicus, po, 120 h, read-out: ED25 (inhibition of adjuvant arthritis of 25%)) worked out at 9 mg/kg/day; in data set [4] (Rattus norvegicus, po, read-out: ED25 (dose which completely suppresses the pain reaction in 25% of the animals)) it was 30 mg/kg. The “therapeutic quotient LD50/ED25” value in data set [3] (adjuvant arthritis, LD50 7 days oral, rats) is on record as 13.3; in data set [4] (setting [7]), 4. The “Inhibition of the pain reaction” value turned out to be 10% in data set [4] (rats, single oral dose 3 mg/kg); 20% in data set [4] (rats, single oral dose 20 mg/kg); 40% in data set [4] (rats, single oral dose 100 mg/kg); 60% in data set [4] (rats, single oral dose 200 mg/kg). In addition, the ED (1.5 degC) in data set [5] (rats, perorally, single dose) is 8.2 mg/kg. Besides, the “Maximum reduction in yeast-induced fever over a period of 7 hours” value (“Maximum reduction in yeast-induced fever” for short) in data set [5] (rats, single oral dose 1 mg/kg) was found to be 0 °C; in data set [5] (rats, single oral dose 3 mg/kg), 0.6 °C; in data set [5] (rats, single oral dose 10 mg/kg), 1.7 °C; in data set [5] (rats, single oral dose 30 mg/kg) it was 2.1 °C. In addition, the actions entry in data set [1] is listed as “superior to those of phenylbutazone”. Further, the LD50 at 168 h in “in vivo” worked out at 120 mg/kg.
Turning to `Cc1cccc(Cl)c1Nc1cscc1CC(=O)O` [Compound 4, 4-(2-chloro-6-methylanilino)-3-thiophenacetic acid], in data set [2], the median effective dose (ED50) was found to be 3 mg/kg and the “Therapeutic quotient LD50/ED50” value was more than 6.7. Moreover, the “Maximum inhibition” value in data set [2] (single oral dose 3.0 mg/kg) is reported as 50%. The ED (1.5 degC) in data set [5] (rats, perorally, single dose) was approximately 0.3 mg/kg. The “Maximum reduction in yeast-induced fever” value in data set [5] (setting [8]) was determined as 1.4 °C. The “Therapeutic quotient LD50/ED2.5” value in data set [5] (rats) is reported as more than 66.7. The “LD50, lethal action after administration for 7 days” value in the data set on rats was more than 20 mg/kg/day. Further, the LD50 at 168 h in “in vivo” was more than 20 mg/kg.
As to `Cc1ccc(Cl)c(Nc2cscc2CC(=O)O)c1Cl` [Compound 5, 4-(2,6-dichloro-3-methylanilino)-3-thiophenacetic acid], the “Therapeutic quotient LD50/ED20” value in data set [6] is listed as 5. Further, the “Inhibition of the formation of granulation tissue after treatment for 7 days” value in data set [6] (7 x 1.0 mg/kg/day orally) stood at 16%; in data set [6] (7 x 3.0 mg/kg/day orally), 26%. Moreover, in data set [5] (rats, perorally, single dose), the ED (1.5 degC) is less than 0.3 mg/kg. Besides, the “Maximum reduction in yeast-induced fever” value in data set [5] (setting [8]) came out at 1.7 °C. For the same compound, the “Therapeutic quotient LD50/ED2.5” value in data set [5] (rats) is more than 26.7. In the data set “in vivo”, the LD50 at 168 h came to 8 mg/kg.
Take `O=C(O)Cc1sccc1Nc1c(Cl)cccc1Cl` [Compound 6, 3-(2,6-dichloroanilino)-2-thiophenacetic acid]: in data set [2], the ED50 was approximately 3 mg/kg and the “Therapeutic quotient LD50/ED50” value is on record as more than 6.7. Also, the “Maximum inhibition” value in data set [2] (single oral dose 3.0 mg/kg) was 52%. Also, in data set [5] (rats, perorally, single dose), the ED (1.5 degC) is less than 0.3 mg/kg. Further, in data set [5] (setting [8]), the “Maximum reduction in yeast-induced fever” value turned out to be 1.7 °C. The “Therapeutic quotient LD50/ED2.5” value in data set [5] (rats) is on record as more than 66.7. Besides, the “LD50, lethal action after administration for 7 days” value with rats is recorded as more than 20 mg/kg/day. Besides, the LD50 at 168 h in the data set “in vivo” was more than 20 mg/kg.
Consider `Cc1cccc(Nc2cscc2CC(=O)O)c1Cl` [Compound 7, 4-(2-chloro-3-methylanilino)-3-thiophenacetic acid], for which the “Therapeutic quotient LD50/ED20” value in data set [6] is more than 5.7. For the same compound, the entries for the “Inhibition of the formation of granulation tissue after treatment for 7 days” value in data set [6] (7 x 3.0 mg/kg/day orally) and in data set [6] (7 x 10.0 mg/kg/day orally) were 19% and 27%, respectively. For the same compound, in the data set “in vivo”, the LD50 at 168 h was more than 20 mg/kg.
On to `Cc1c(Cl)cccc1Nc1cscc1CC(=O)O` [Compound 8, 4-(3-chloro-2-methylanilino)-3-thiophenacetic acid], for which, in data set [2], the ED50 was approximately 3 mg/kg and the “Therapeutic quotient LD50/ED50” value is more than 10. Further, the “Maximum inhibition” value in data set [2] (single oral dose 3.0 mg/kg) turned out to be 49%. This compound also yielded an LD50 at 168 h in “in vivo” of more than 30 mg/kg.
Consider `O=C(O)Cc1csc(Cl)c1Nc1c(Cl)cccc1Cl` [Compound 10, 5-chloro-4-(2,6-dichloroanilino)-3-thiophenacetic acid], for which the ED (1.5 degC) in data set [5] amounted to 0.5 mg/kg. The “Maximum reduction in yeast-induced fever” value in data set [5] (setting [8]) came to 1.2 °C; in data set [5] (rats, single oral dose 0.6 mg/kg), 1.6 °C.
Take `Cc1cccc(Cl)c1Nc1ccsc1CC(=O)O` [Compound 11, 3-(2-chloro-6-methylanilino)-2-thiophenacetic acid]: in data set [2], the ED50 is approximately 3 mg/kg and the “Therapeutic quotient LD50/ED50” value was more than 6.7. Also, the “Maximum inhibition” value in data set [2] (single oral dose 3.0 mg/kg) is 49%. Also, the LD50 at 168 h in “in vivo” is more than 20 mg/kg.
On to `O=C(O)Cc1cscc1Nc1c(F)cccc1F` [Compound 12, 4-(2,6-difluoroanilino)-3-thiophenacetic acid], for which the ED (1.5 degC) in data set [5] (rats, perorally, single dose) was 0.9 mg/kg. Besides, the “Maximum reduction in yeast-induced fever” value was found to be 0.5 °C in data set [5] (setting [8]) and 1.6 °C in data set [5] (rats, single oral dose 1 mg/kg). In addition, the “Therapeutic quotient LD50/ED2.5” value in data set [5] (rats) was more than 33. In the data set “in vivo”, this compound registered an LD50 at 168 h of more than 30 mg/kg.

The record behind these values is patent US4272507A, “Phenylaminothiophenacetic acids, their synthesis, compositions and use” (priority 1978, dated 1981).
